From ChEMBL document CHEMBL4495565, “Cytopathic SARS-Cov2 screening on VERO-E6 cells in a large repurposing effort” (2020)
Values joined by “and” are separate entries in the source; they are usually repeats but may differ in a detail not shown here. Identical values can stand only once. Counter-ions that a name gives are not always drawn. Peptide text beside a SMILES is read from it. * marks the point of attachment. Cbz = O=C(OCc1ccccc1)*

How the values were obtained:
[1] = tested on: SARS-CoV-2; experiment: microbe, parasite or virus in culture; format: functional, organism-based, Chlorocebus sabaeus, Vero C1008
[2] = tested on: Vero C1008; settings: chlorocebus sabaeus, vero c1008, 48 h
[3] = in vitro; settings: chlorocebus sabaeus
[4] = tested on: SARS-CoV-2; settings: Chlorocebus sabaeus; Vero C1008; 10 uM
[5] = in vitro; settings: chlorocebus sabaeus; remark: listed apart in the source
[6] = VERO-E6 cells (Vero C1008), uninfected, CC50
[7] = Severe acute respiratory syndrome coronavirus 2, Vero C1008, 48 h

Row | Compound | CC50 [2] | inhibition [4] | further results
1 | COc1cc2c(NC3CCN(C4CCCCC4)CC3)nc(N3CCCN(C(C)C)CC3)nc2cc1OCCCN1CCCCC1 | 18.6 µM |  | IC50 ([1]; vero c1008): > 33 µM; CC50 at 48 h [3, 6]: > 33 µM
2 | O=C(c1c2ccccc2cc2ccccc12)N1CCC(N2CCC[C@@H](C(=O)N3CCOCC3)C2)CC1 | 10.9 µM |  | CC50 at 48 h [3, 6]: 10.2 µM
3 | CC(=O)OC[C@]12CCC(C)=C[C@H]1O[C@@H]1[C@H](O)[C@@H](OC(C)=O)[C@@]2(C)[C@@]12CO2 |  | -0.2% | 
4 | Cc1cc(Nc2cc(N3CCN(C)CC3)nc(Sc3ccc(NC(=O)C4CC4)cc3)n2)n[nH]1 |  | 0.28% | 
5 | Nc1nc2nn[nH]c2c(=O)[nH]1 [8-AZAGUANINE] | 11.2 µM |  | IC50 ([1]; vero c1008): 3.72 µM and 10.3 µM; CC50 at 48 h [3, 6]: 10.4 µM
6 | CNCc1ccc(-c2cc(-c3nc(-c4ccc(S(=O)(=O)C(C)C)cc4)cnc3N)on2)cc1 [BERZOSERTIB] | 10 µM and > 33 µM |  | IC50 ([1]; vero c1008): 3.54 µM
7 | CC(=O)[C@]1(O)Cc2c(O)c3c(c(O)c2[C@@H](O[C@H]2C[C@H](N)[C@H](O)[C@H](C)O2)C1)C(=O)c1ccccc1C3=O [IDARUBICIN HYDROCHLORIDE] | 0.41 µM |  | 
8 | CC(=O)[C@]1(O)Cc2c(O)c3c(c(O)c2[C@@H](O[C@H]2C[C@H](N)[C@H](O)[C@H](C)O2)C1)C(=O)c1ccccc1C3=O [IDARUBICIN] | 0.2 µM |  | 
9 | CC(C)C[C@@H](C=O)NC(=O)[C@H](CC(C)C)NC(=O)[C@H](CC(C)C)NC(=O)OCc1ccccc1 [MG-132] (Cbz-Leu-Leu-Leu-aldehyde) | 3.04 µM |  | IC50 ([1]; vero c1008): 0.99 µM; CC50 at 48 h [3, 6]: 2.9 µM
10 | COc1ccc(-c2cc3c(C)nc(N)nc3n([C@H]3CC[C@H](OCCO)CC3)c2=O)cn1 [PF-04691502] | 0.32 µM and 0.09 µM |  | IC50 [1, 7]: 0.55 µM; IC50 ([1]; vero c1008): 0.8 µM
11 | CNC(=O)c1cc(Oc2ccc(NC(=O)Nc3ccc(Cl)c(C(F)(F)F)c3)c(F)c2)ccn1 [REGORAFENIB] | > 33 µM and 8.31 µM |  | IC50 [1, 7]: > 33 µM; IC50 ([1]; vero c1008): 24.9 µM
12 | COc1cc(C[C@H]2c3cc(OC)c(OC)cc3CCN2C)c(Oc2cc3c(cc2OC)-c2c(OC)c(OC)cc4c2[C@H](C3)N(C)CC4)cc1OC [THALICARPINE] |  |  | IC50 [1, 7]: 3.87 µM; CC50 at 48 h [3, 6]: > 33 µM; selectivity ratio ([5]; VERO-E6 cells, Selectivity index): 8.53
13 | CC(C)(C)c1cc(C=C(C#N)C#N)cc(C(C)(C)C)c1O [TYRPHOSTIN A9] | 7.99 µM and 1.27 µM |  | IC50 ([1]; vero c1008): > 33 µM
14 | O[C@@H](COc1cccc2ncccc12)CN1CCN([C@@H]2c3ccccc3[C@@H]3[C@H](c4ccccc42)C3(F)F)CC1 [ZOSUQUIDAR TRIHYDROCHLORIDE] |  |  | IC50 [1, 7]: 8.4 µM; CC50 at 48 h ([3]; vero c1008, CC50): 9.11 µM; selectivity ratio ([5]; vero c1008, Selectivity index): 1.08
15 | ACRIFLAVINE HYDROCHLORIDE |  | -0.35% | 
16 | AUROTHIOGLUCOSE |  | -0.05% | 

Row | Compound | CC50 [2] | inhibition [4] | further results
17 | Auranofin |  | -0.39% | 
18 | CETRIMONIUM BROMIDE |  | 0.3% | 
19 | COLISTIMETHATE SODIUM |  | -0.25% | 
20 | CYANOCOBALAMIN |  | 0.04% | 
21 | ESCIN |  | -0.23% | 
22 | GADOTERIDOL |  | -0.08% | 
23 | MERBROMIN |  | 0% | 
24 | NYSTATIN |  | 0.08% | 
25 | PHENYLMERCURIC ACETATE |  | -0.23% | 
26 | Sodium orthovanadate |  | 0.13% | 
27 | TOCOFERSOLAN |  | 41.8% | 
28 | VANADATE ION |  | 0.02% | 
29 | VITAMIN E |  | 0.25% (2×) and -0.04% (2×) | 
30 | Vitamin B12 |  | 0.12% | 
31 | hemin |  | -0.12% | 
